Columns and labels:
CDK2/Cyclin E1 = CDK2/Cyclin E1 (Homo sapiens, UniProt P24941); test: CDK2/Cyclin E1 Biochemical Assay (TR-FRET), 0.060 mM ATP; conditions: 0.15 μM Rb (Ser780)-biotin substrate, pH7.0, 60 min preincubation, 120 min reaction, room temperature
How it was run: (§1)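 Phosphorylation of a biotin-tagged Rb Ser780 peptide (0.15 μM) is measured by time-resolved FRET between a europium-labelled phospho-specific antibody and streptavidin-XL665. Compound (0–10 μM) sits with enzyme 60 min first; the kinase reaction then proceeds 120 min at room temperature, pH 7.0.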

CDK1/Cyclin B1 = CDK1/Cyclin B1 (Homo sapiens, UniProt P06493); test: CDK1/Cyclin B1 Biochemical Assay (TR-FRET), 0.015 mM ATP; conditions: 0.15 μM Rb (Ser780)-biotin substrate, pH7.0, 60 min preincubation, 120 min reaction, room temperature
How it was run: as §1

CDK1/Cyclin B1, sequence (P06493 whole entry): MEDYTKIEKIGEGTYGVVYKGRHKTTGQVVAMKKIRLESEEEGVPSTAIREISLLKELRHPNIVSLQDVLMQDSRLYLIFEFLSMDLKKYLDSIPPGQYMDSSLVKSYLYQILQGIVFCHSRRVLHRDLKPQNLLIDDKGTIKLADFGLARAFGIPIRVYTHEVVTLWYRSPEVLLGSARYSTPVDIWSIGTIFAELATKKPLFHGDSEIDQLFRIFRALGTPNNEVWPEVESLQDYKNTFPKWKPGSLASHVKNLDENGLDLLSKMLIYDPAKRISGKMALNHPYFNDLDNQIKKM
CDK1/Cyclin B1, sequence (P14635 whole entry partner): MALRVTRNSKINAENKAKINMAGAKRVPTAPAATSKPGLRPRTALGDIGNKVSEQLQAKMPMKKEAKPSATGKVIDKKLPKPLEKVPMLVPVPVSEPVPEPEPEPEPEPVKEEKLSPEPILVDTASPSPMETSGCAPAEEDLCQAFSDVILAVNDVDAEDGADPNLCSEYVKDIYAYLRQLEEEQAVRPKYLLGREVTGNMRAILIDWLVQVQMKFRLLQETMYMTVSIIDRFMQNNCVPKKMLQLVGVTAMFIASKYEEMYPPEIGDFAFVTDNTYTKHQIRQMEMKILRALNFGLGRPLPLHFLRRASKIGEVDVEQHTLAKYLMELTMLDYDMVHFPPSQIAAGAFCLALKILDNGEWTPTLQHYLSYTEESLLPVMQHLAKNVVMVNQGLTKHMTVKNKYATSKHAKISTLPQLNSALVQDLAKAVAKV

SMILES	IC50 (CDK2/Cyclin E1) [nM]	IC50 (CDK1/Cyclin B1) [nM]
CCCNC(=O)O[C@H]1CC[C@@H](c2cc(Nc3ccc4c(c3)CS(=O)(=O)N4)n[nH]2)C1 (single isomer, unassigned) [Example 195a, cis-3-(3-((2,2-dioxido-1,3-dihydrobenzo[c]isothiazol-5-yl)amino)-1H-pyrazol-5-yl)cyclopentyl propylcarbamate]	12	73
CC(C)NC(=O)O[C@H]1CC[C@@H](c2cc(Nc3ccc4c(c3)CS(=O)(=O)N4CCO)n[nH]2)C1 (single isomer, unassigned) [Example 219a, cis-3-(3-((1-(2-hydroxyethyl)-2,2-dioxido-1,3-dihydrobenzo[c]isothiazol-5-yl)amino)-1H-pyrazol-5-yl)cyclopentyl isopropylcarbamate]	5.4	46
CC(C)NC(=O)O[C@H]1CC[C@@H](c2cc(Nc3ccc4c(c3)CS(=O)(=O)N4CCO)n[nH]2)C1 (single isomer, unassigned) [Example 219b, cis-3-(3-((1-(2-hydroxyethyl)-2,2-dioxido-1,3-dihydrobenzo[c]isothiazol-5-yl)amino)-1H-pyrazol-5-yl)cyclopentyl isopropylcarbamate]	3.6	28
CC(C)NC(=O)O[C@H]1CC[C@@H](c2cc(Nc3ccc4c(c3)CS(=O)(=O)N4C)n[nH]2)C1 (single isomer, unassigned) [Example 220b]	2.6	35
CN1c2ccc(Nc3cc([C@@H]4CC[C@H](OC(=O)NC5CCC5)C4)[nH]n3)cc2CS1(=O)=O (single isomer, unassigned) [Example 227a, cis-3-(3-((1-methyl-2,2-dioxido-1,3-dihydrobenzo[c]isothiazol-5-yl)amino)-1H-pyrazol-5-yl)cyclopentyl cyclobutylcarbamate]	3.5	156
CC(C)NC(=O)O[C@H]1CC[C@@H](c2cc(Nc3ccc4c(c3)CCS(=O)(=O)N4)n[nH]2)C1 (single isomer, unassigned) [Example 246a, cis-3-(3-((2,2-dioxido-3,4-dihydro-1H-benzo[c][1,2]thiazin-6-yl)amino)-1H-pyrazol-5-yl)cyclopentyl isopropylcarbamate]	3.4	201
CC(C)NC(=O)O[C@H]1CC[C@@H](c2cc(Nc3ccc4c(c3F)CS(=O)(=O)N4C)n[nH]2)C1 (single isomer, unassigned) [Example 255a, cis-3-(3-((4-fluoro-1-methyl-2,2-dioxido-1,3-dihydrobenzo[c]isothiazol-5-yl)amino)-1H-pyrazol-5-yl)cyclopentyl isopropylcarbamate]	2.9	133
CC(C)NC(=O)O[C@H]1CC[C@@H](c2cc(Nc3ccc4c(c3F)CS(=O)(=O)N4C)n[nH]2)C1 (single isomer, unassigned) [Example 255b, cis-3-(3-((4-fluoro-1-methyl-2,2-dioxido-1,3-dihydrobenzo[c]isothiazol-5-yl)amino)-1H-pyrazol-5-yl)cyclopentyl isopropylcarbamate]	5.2	149
CCCNC(=O)O[C@H]1CC[C@@H](c2cc(Nc3ccc4c(c3F)CS(=O)(=O)N4C)n[nH]2)C1 (single isomer, unassigned) [Example 256a, cis-3-(3-((4-fluoro-1-methyl-2,2-dioxido-1,3-dihydrobenzo[c]isothiazol-5-yl)amino)-1H-pyrazol-5-yl)cyclopentyl propylcarbamate]	5.3	334
CCCNC(=O)O[C@H]1CC[C@@H](c2cc(Nc3ccc4c(c3F)CS(=O)(=O)N4C)n[nH]2)C1 (single isomer, unassigned) [Example 256b, cis-3-(3-((4-fluoro-1-methyl-2,2-dioxido-1,3-dihydrobenzo[c]isothiazol-5-yl)amino)-1H-pyrazol-5-yl)cyclopentyl propylcarbamate]	4	130
CC(C)NC(=O)O[C@H]1CC[C@@H](c2cc(Nc3ccc4c(c3F)CS(=O)(=O)N4C3COC3)n[nH]2)C1 (single isomer, unassigned) [Example 259a, cis-3-(3-((4-fluoro-1-(oxetan-3-yl)-2,2-dioxido-1,3-dihydrobenzo[c]isothiazol-5-yl)amino)-1H-pyrazol-5-yl)cyclopentyl isopropylcarbamate]	5.4	364
CC(C)NC(=O)O[C@H]1CC[C@@H](c2cc(Nc3ccc4c(c3F)CS(=O)(=O)N4C3COC3)n[nH]2)C1 (single isomer, unassigned) [Example 259b, cis-3-(3-((4-fluoro-1-(oxetan-3-yl)-2,2-dioxido-1,3-dihydrobenzo[c]isothiazol-5-yl)amino)-1H-pyrazol-5-yl)cyclopentyl isopropylcarbamate]	3	157
CCCNC(=O)O[C@H]1CC[C@@H](c2cc(Nc3ccc4c(c3F)CS(=O)(=O)N4C3COC3)n[nH]2)C1 (single isomer, unassigned) [Example 260a, cis-3-(3-((4-fluoro-1-(oxetan-3-yl)-2,2-dioxido-1,3-dihydrobenzo[c]isothiazol-5-yl)amino)-1H-pyrazol-5-yl)cyclopentyl propylcarbamate]	5.9	270
CCCNC(=O)O[C@H]1CC[C@@H](c2cc(Nc3ccc4c(c3F)CS(=O)(=O)N4C3COC3)n[nH]2)C1 (single isomer, unassigned) [Example 260b, cis-3-(3-((4-fluoro-1-(oxetan-3-yl)-2,2-dioxido-1,3-dihydrobenzo[c]isothiazol-5-yl)amino)-1H-pyrazol-5-yl)cyclopentyl propylcarbamate]	3.4	103
CC(C)NC(=O)O[C@H]1CC[C@@H](c2cc(Nc3ccc4c(c3F)CS(=O)(=O)N4CC(F)(F)F)n[nH]2)C1 (single isomer, unassigned) [Example 263b, cis-3-(3-((4-fluoro-2,2-dioxido-1-(2,2,2-trifluoroethyl)-1,3-dihydrobenzo[c]isothiazol-5-yl)amino)-1H-pyrazol-5-yl)cyclopentyl isopropylcarbamate]	5.1	91

Further molecules by falling IC50 (CDK2/Cyclin E1), results first:

IC50 (CDK2/Cyclin E1) [nM]	IC50 (CDK1/Cyclin B1) [nM]	SMILES
2.6	56	CC(C)NC(=O)O[C@@H]1CC[C@H](c2cc(Nc3ccc4c(c3)CS(=O)(=O)N4C)n[nH]2)C1 (single isomer, unassigned) [Example 220a]
2.3	68	CC(C)NC(=O)O[C@H]1CC[C@@H](c2cc(Nc3ccc4c(c3)CCS(=O)(=O)N4)n[nH]2)C1 (single isomer, unassigned) [Example 246b, cis-3-(3-((2,2-dioxido-3,4-dihydro-1H-benzo[c][1,2]thiazin-6-yl)amino)-1H-pyrazol-5-yl)cyclopentyl isopropylcarbamate]
2.1	70	CC(C)NC(=O)O[C@H]1CC[C@@H](c2cc(Nc3ccc4c(c3F)CS(=O)(=O)N4CC(F)(F)F)n[nH]2)C1 (single isomer, unassigned) [Example 263a, cis-3-(3-((4-fluoro-2,2-dioxido-1-(2,2,2-trifluoroethyl)-1,3-dihydrobenzo[c]isothiazol-5-yl)amino)-1H-pyrazol-5-yl)cyclopentyl isopropylcarbamate]
1.3	45	CN1c2ccc(Nc3cc([C@@H]4CC[C@H](OC(=O)NC5CCC5)C4)[nH]n3)cc2CS1(=O)=O (single isomer, unassigned) [Example 227b, cis-3-(3-((1-methyl-2,2-dioxido-1,3-dihydrobenzo[c]isothiazol-5-yl)amino)-1H-pyrazol-5-yl)cyclopentyl cyclobutylcarbamate]
1.3	119	CC[C@H](C)NC(=O)O[C@H]1CC[C@@H](c2cc(Nc3ccc4c(c3F)CS(=O)(=O)N4C3COC3)n[nH]2)C1 (single isomer, unassigned) [Example 261a]
1.3	65	CC1(NC(=O)O[C@H]2CC[C@@H](c3cc(Nc4ccc5c(c4F)CS(=O)(=O)N5CC(F)(F)F)n[nH]3)C2)CC1 (single isomer, unassigned) [Example 264a, cis-3-(3-((4-fluoro-2,2-dioxido-1-(2,2,2-trifluoroethyl)-1,3-dihydrobenzo[c]isothiazol-5-yl)amino)-1H-pyrazol-5-yl)cyclopentyl(1-methylcyclopropyl)carbamate]
1.1	31	CC1(NC(=O)O[C@H]2CC[C@@H](c3cc(Nc4ccc5c(c4)CCS(=O)(=O)N5)n[nH]3)C2)CC1 (single isomer, unassigned) [Example 249a, cis-3-(3-((2,2-dioxido-3,4-dihydro-1H-benzo[c][1,2]thiazin-6-yl)amino)-1H-pyrazol-5-yl)cyclopentyl(1-methylcyclopropyl)carbamate]
1.1	74	CC(C)NC(=O)O[C@@H]1CC[C@H](c2cc(Nc3ccc4c(c3F)CS(=O)(=O)N4)n[nH]2)C1 (single isomer, unassigned) [Example 251a]
1	31	CC(C)NC(=O)O[C@H]1CC[C@@H](c2cc(Nc3ccc4c(c3F)CS(=O)(=O)N4)n[nH]2)C1 (single isomer, unassigned) [Example 251b]
0.7	23	CC[C@H](C)NC(=O)O[C@H]1CC[C@@H](c2cc(Nc3ccc4c(c3F)CS(=O)(=O)N4C3COC3)n[nH]2)C1 (single isomer, unassigned) [Example 261b]
0.6	12	CC1(NC(=O)O[C@H]2CC[C@@H](c3cc(Nc4ccc5c(c4)CCS(=O)(=O)N5)n[nH]3)C2)CC1 (single isomer, unassigned) [Example 249b, cis-3-(3-((2,2-dioxido-3,4-dihydro-1H-benzo[c][1,2]thiazin-6-yl)amino)-1H-pyrazol-5-yl)cyclopentyl(1-methylcyclopropyl)carbamate]
